Experimental data reported in patent US5607926A, “Cephalosporin antibiotics” (Microcide Pharmaceuticals, Inc., priority 1995, dated 1997).
≈ marks a conversion by molar mass, not a printed value. Structures can show the parent of a compound that is named as a salt. Where two headings read alike, the source gives them in different places.

Legend:
[1] = system: S. aureus 76 (Meth^R)(lac^+); experiment: In vitro antibacterial evaluation, MIC by agar dilution, S. aureus 76; format: cell-based; conditions: Staphylococcus aureus, read-out: MIC
How it was run: (§1)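 Log-phase isolates were spot-inoculated at about 10^4 cfu per spot onto Mueller-Hinton agar plates containing twofold compound dilutions (highest working concentration 128 μg/mL, lowest ≤0.25 μg/mL, duplicates). After 16-20 h at 35-36 °C, the lowest growth-inhibiting level was taken as MIC, per NCCLS agar dilution.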

E. coli ATCC 25922 = experiment: In vitro antibacterial evaluation, MIC by agar dilution, E. coli ATCC 25922; format: cell-based; conditions: Escherichia coli, ATCC25922, read-out: MIC
How it was run: as §1

S. aureus ATCC 29213 = experiment: In vitro antibacterial evaluation, MIC by agar dilution, S. aureus ATCC 29213; format: cell-based; conditions: Staphylococcus aureus, ATCC29213
How it was run: as §1

[2] = system: S. aureus Col8A (Meth^S)(lac^-); experiment: In vitro antibacterial evaluation, MIC by agar dilution, S. aureus Col8A; format: cell-based; conditions: Staphylococcus aureus
How it was run: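 Log-phase isolates were spot-inoculated at about 10^4 cfu onto Mueller-Hinton agar carrying duplicate two-fold compound levels, 128 μg/mL to ≤0.25 μg/mL, following NCCLS (1991). Plates were read after 16-20 h at 35°-36° C. The lowest growth-inhibiting concentration gave the MIC (μg/ml).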

[3] = system: methicillinsusceptible S. aureus strain ATCC 13709; experiment: Challenge strain MIC; format: cell-based; conditions: Staphylococcus aureus
Description: The compounds of the invention were evaluated against several β-lactamresistant bacteria strains by determining the minimum inhibitory concentration (MIC, μg/ml) of each compound with respect to each strain. The MIC, the lowest concentration of antibiotic which inhibits growth of the test organism, was determined by the agar dilution method.
To determine the MIC for bacterial isolates, the test compound was incorporated in a series of two-fold dilutions into liquified Mueller-Hinton agar. Upon solidification, a number of different bacterial strains were spot inoculated with a replicating device onto the agar surface. […] The procedures used in these studies have been standardized by the National Committee for Clinical Laboratory Standards (NCCLS), as per the NCCLS publication entitled METHODS FOR DILUTION ANTIMICROBIAL SUSCEPTIBILITY TESTS (1991), which is incorporated herein by reference.
Aliquots of antimicrobial agents were prepared in phosphate buffered saline (PBS) at pH 7.2. Tween 20 or DMSO was used as a solubilizing vehicle as needed. Standard methods of vortexing, sonicating and gentle heat were used to facilitate solubilizing the test agent. Typically, the concentration of the stock solution was 10× that of the highest drug concentration tested. A 1.28 mg/mL stock solution was used with a subsequent highest working concentration of 128 μg/mL. Serial two-fold dilutions were done through ≤0.25 μg/mL. Each drug level was tested in duplicate. Two-fold drug dilutions were done in sterile 50 mL tubes with a final drug volume of 5 mL. Upon the addition of 45 mL of molten agar, a 10-fold dilution resulted. Two, 25 mL. plates were then poured into 15×150 mm square Petri plates with grids and allowed to harden.
A control plate with a reference drug, either cefotaxime, vancomycin or imipenem, was used as the positive growth control. Stock concentrations of reference antibiotics were prepared and frozen at -80° C. Upon preparation, the control plates were sealed and stored in the refrigerator for up to 1 week prior to use; however, imipenem control plates had to be prepared just prior to use. All test plates were used within 24 hours of preparation.
Satisfactory results were obtained where the inoculum contained about 10^4 colony forming units (cfu) ±0.5 logs. Starting with pure cultures of the test isolates on agar plates, a few isolated colonies were transferred to a tube of nutrient broth and allowed to grow 4-6 hours at 35°-36° C. to reach log-phase growth. Dropwise addition of the broth culture to PBS was done to match a 0.5 McFarland turbidity standard equal to 10^8 cfu/mL. This was further diluted ten-fold in PBS to reach a working inoculum concentration of 10^7 cfu/mL. When 1 μL of the working inoculum was applied to the agar surface a concentration of about 10^4 cfu per spot was obtained.
Disposable sterile 1 μL loops were used to inoculate test plates, with each isolate in a designated grid on the agar plate. An alternate method of inoculation involved the use of a replica plater, a device with 48 steel pins allowing the simultaneous inoculation of multiple isolates. After the spots had dried, the plates were incubated at 35°-36° C. for 16-20 hours. Endpoints were assessed as the minimum inhibitory concentration (MIC) of antimicrobial agent.
(§2) data reported for challenge with methicillinsusceptible S. aureus strain

S. haemolyticus (Meth^R) = experiment: In vitro antibacterial evaluation, MIC by agar dilution, S. haemolyticus; format: cell-based; conditions: Staphylococcus haemolyticus, read-out: MIC
How it was run: as §1

E. faecium ATCC 35667 = experiment: In vitro antibacterial evaluation, MIC by agar dilution, E. faecium ATCC 35667; format: cell-based; conditions: Enterococcus faecium, ATCC35667, read-out: MIC
How it was run: as §1

[4] = system: methicillinsusceptible S. aureus strain ATCC 13709; experiment: In vivo antibacterial evaluation, murine model for lethal bacteremic peritonitis; set-up: species or system S. aureus in female Swiss-Webster mice; conditions: Staphylococcus aureus, ATCC13709, sc, 72 h, two equal SC doses at challenge and 2 hours later, mice, probit, read-out: ED50
Description: Groups of 5 female Swiss-Webster mice (Simonsen, Gilroy, Calif.) each are challenged by the intraperitoneal (IP) route with ten-fold increments of a bacterial inoculum. This permits calculation of the mean lethal dose (LD50) and the LD100. For preliminary evaluation of a new antibiotic, mice are challenged IP with an LD100 titer of bacteria. In two equal doses administered at the time of bacterial challenge and 2 hours later, groups of 10 mice each are treated subcutaneously with two-fold increments of the test drug and an antibiotic of known efficacy in mice and humans (i.e., positive control). Mice are observed for 72 h. Those alive at 72 h are considered long term survivors. The total drug dose in mg/kg that protects 50% of mice in a group from death is termed the mean protective dose (PD50). PD50 s are similarly determined for several pathogens. The quantitative endpoints for the new drug are then compared with those obtained with reference antibiotics.
Six ten-fold dilutions of inoculum suspended in 0.5 mL of sterilized 7% hog gastric mucin (Sigma) are injected IP in groups of 5 mice each. A control group of 5 mice receive mucin alone. Mice are observed for 72 h. Those alive at 72 h are considered long term survivors. The mean lethal dose (LD50) and 100% lethal dose (LD100) are determined by the probit test.
For antibiotic efficacy studies, mice are challenged IP with bacterial titers that will afford an LD100 for the test strain. In two equal doses administered at the time of bacterial challenge and 2 hours later, groups of 10 mice each are treated by the subcutaneous route (SC) with twofold increments of the test antibiotic; another group is treated similarly with a reference antibiotic of known efficacy in animals and man. Drug doses can range from 0.01 to 512 mg/kg. If the drug is poorly soluble, Tween 20 or propylene glycol will be employed to solubilize the drug. Animals are observed for 72 h. The 50% protective dose (PD50) is calculated in mg/kg by the probit method. The PD50 is the same as the 50% effective dose (ED50) and the 50% curative dose (CD50). Samples of blood from the hearts of all animals that die and from half the mice that survive are cultured on brain-heart infusion agar. Animals that received a protective dosage of the test drug will be alive at 72 h, although they may appear moderately ill to very ill during the observation period. […] Most of these mice will die within 6 to 48 h. Those alive at 72 h will be considered long term survivors.
as §2

P. aeruginosa ATCC 27853 = experiment: In vitro antibacterial evaluation, MIC by agar dilution, P. aeruginosa ATCC 27853; format: cell-based; conditions: Pseudomonas aeruginosa, ATCC27853, read-out: MIC
How it was run: as §1

E. faecalis ATCC 29212 = experiment: In vitro antibacterial evaluation, MIC by agar dilution, E. faecalis ATCC 29212; format: cell-based; conditions: Enterococcus faecalis, ATCC29212
How it was run: as §1

[5] = ATCC13709, S. aureus ATCC 13709, read-out: Challenge str MIC
[6] = E. faecalis ATCC 29212, read-out: MIC
[7] = S. aureus ATCC 29213, read-out: MIC

Structure (SMILES)	MIC [1] [µg/mL]	MIC (E. coli ATCC 25922) [µg/mL]	MIC (S. aureus ATCC 29213) [µg/mL]	MIC [2] [µg/mL]	MIC [3, 5] [µg/mL]	MIC (S. haemolyticus (Meth^R)) [µg/mL]	MIC (E. faecium ATCC 35667) [µg/mL]	ED50 [4] [mg/kg]	MIC (P. aeruginosa ATCC 27853) [µg/mL]	MIC (E. faecalis ATCC 29212; [6]) [µg/mL]	MIC (S. aureus ATCC 29213; [7]) [µg/mL]	MIC ([3]; ATCC13709, read-out: Challenge str MIC) [µg/mL]	MIC (E. faecalis ATCC 29212) [µg/mL]
N=C(N)SCc1ccccc1SC1=C(C(=O)O)N2C(=O)[C@@H](NC(=O)Cc3ccccc3CN)[C@H]2SC1 [Cmpd 101, (7R)-7-[((2-Aminomethylphenyl)acetyl)amino]-3-(2-isothiouroniummethylphenylthio)-3-cephem-4-carboxylate, trifluoroacetic acid salt]	8	> 32	0.25	0.25	0.125	16	2	0.65	> 32	1			
CSCC(=O)N[C@@H]1C(=O)N2C(C(=O)O)=C(Sc3ccnn3-c3ccccc3)CS[C@H]12 [Cmpd 106, (7R)-7-[(methylthioacetyl)amino]-3-(1-N-phenylpyrazol-5-ylthio)-3-cephem-4-carboxylic acid]	8 (≈ 17.3 µM)	> 32		0.125 (≈ 0.27 µM)		32 (≈ 69.2 µM)	4 (≈ 8.65 µM)	0.72	> 32	4 (≈ 8.65 µM)	0.25 (≈ 0.54 µM)	0.125 (≈ 0.27 µM)	
CCC(CC)O/N=C(\C(=O)N[C@@H]1C(=O)N2C(C(=O)O)=C(Sc3ccnn3-c3ccccc3)CS[C@H]12)c1csc(N)n1 [Cmpd 104, (7R)-7-[(Z)-2-(aminothiazol-4-yl)-2-(3-pentyloxyimino)acetamido]-3-(1-N-phenylpyrazol-5-ylthio)-3-cephem-4-carboxylic acid]	4 (≈ 6.52 µM)	8 (≈ 13 µM)		0.5 (≈ 0.815 µM)	0.5 (≈ 0.815 µM)	4 (≈ 6.52 µM)	4 (≈ 6.52 µM)	> 10	16 (≈ 26.1 µM)	2 (≈ 3.26 µM)	0.5 (≈ 0.815 µM)		
O=C(O)C1=C(Sc2ccnn2-c2ccccc2)CS[C@@H]2[C@H](NC(=O)/C(=N\O)c3ccccc3)C(=O)N12 [Cmpd 130, (7R)-7-[(Z)-2-(Phenyl)-2-(hydroxyimino)acetamido]-3-(1-N-(phenyl)pyrazol-5-ylthio)-3-cephem-4-carboxylic acid]	4 (≈ 7.67 µM)	> 32		0.25 (≈ 0.479 µM)	0.125 (≈ 0.24 µM)	4 (≈ 7.67 µM)	0.5 (≈ 0.959 µM)	> 10	> 32		0.125 (≈ 0.24 µM)		0.25 (≈ 0.479 µM)
Nc1nc(/C(=N/OCC2CC2)C(=O)N[C@@H]2C(=O)N3C(C(=O)O)=C(Sc4ccnn4-c4ccccc4)CS[C@H]23)cs1 [Cmpd 108, (7R)-7-[(Z)-2-(2-aminothiazol-4-yl)-2-(cyclopropylmethyloxyimino)acetamido]-3-(1-N-phenylpyrazol-5-ylthio)-3-cephem-4-carboxylic acid]	8 (≈ 13.4 µM)	4 (≈ 6.69 µM)		0.5 (≈ 0.837 µM)	0.5 (≈ 0.837 µM)	16 (≈ 26.8 µM)	16 (≈ 26.8 µM)	> 10	16 (≈ 26.8 µM)	16 (≈ 26.8 µM)	0.5 (≈ 0.837 µM)		
N#CCSCC(=O)N[C@@H]1C(=O)N2C(C(=O)O)=C(Sc3ccnn3-c3ccccc3)CS[C@H]12 [Cmpd 122, (7R)-7-[(cyanomethylthioacetyl)amino]-3-(1-N-phenylpyrazol-5-ylthio)-3-cephem-4-carboxylic acid]	8 (≈ 16.4 µM)	> 32	0.25 (≈ 0.513 µM)	0.25 (≈ 0.513 µM)	0.125 (≈ 0.256 µM)	16 (≈ 32.8 µM)	4 (≈ 8.2 µM)	1.13	> 32	4 (≈ 8.2 µM)			
N=C(N)SCc1ccc(CC(=O)N[C@@H]2C(=O)N3C(C(=O)O)=C(Sc4ccccc4CSC(=N)N)CS[C@H]23)cc1 [Cmpd 97, (7R)-7-[((4-isothiouroniummethylphenyl)acetyl)amino]-3-(2-isothiouroniummethylphenylthio)-3-cephem-4-carboxylate, trifluoroacetic acid salt]	4	> 32		0.125	0.062	8	1	0.74	> 32	0.5	0.06		
